# Key:
# Format in all cases: cell-based
# various cell types = assay: Labeling of various cell types with bifunctional probe, NanoBiT detection (FIG. 2B)
# Description: As shown in FIGS. 2A-2B, a variety of cells were labeled with the bifunctional probes of the present disclosure. FIG. 2A is a representative schematic diagram of a method used to label the various target cells identified in FIG. 2B. […] Robust luminescence was detected from the labeled proteins released after cell death, which were quantified using the NanoBiT® system, while little luminescence was detected in the media and live cells.
# In accordance with these experiments, the various cell types tested were collected by centrifugation for 5 mins at 300 g followed by aspiration of the media and resuspension in PBS. The bifunctional probe was then added to the media and allowed to incubate for 30 mins at 37° C. Pre-warmed (37° C.) complete media containing 10% serum was then added to the cells and incubated for 5 mins at 37° C. The labeled cells were then collected by centrifugation for 5 mins at 300 g and excess media was removed, and the labeled cells were then resuspended in the desired media. NanoBiT® detection reagents were then added to the labeled cells and allowed to incubate for 30 mins at 37° C. prior to reading luminescence (RLUs).
# Raji cells [1] = assay: Release of labeled proteins from dead cells, NanoBiT bioluminescence, Raji; settings: for Dead/Live at 5,000 cells/well: final labeling probe concentration 2 μM; for Dead, RLUs: dead (digitonin treated) cells; for Live, RLUs: live cells; for Dead/Live: ratio after background subtraction
# Protocol: (§1) Next, the bifunctional labeling probe was thawed at room temperature and mixed. The probe was generally contained in DMSO. The bifunctional probe was added to the cells at a final concentration between about 0.5-10 μM. The cells were then mixed by gently pipetting and incubated for 30 minutes at 37° C. To inactivate unreactive free labeling probe, a 10× volume of pre-warmed (37° C.) cell culture medium containing 10% FBS was added, and the cells incubated for additional 5 minutes. The labeled cells were then spun down, and the labeling media removed. The cells were resuspended in fresh cell culture media at the concentration required for the experiment.
# (§2) In some embodiments, one or more components of the NanoBiT® system can be used for measuring cell death of pre-labeled cell population in mixed cell cultures. Here, an exemplary protocol is described for using this assay in 96-well plates in […]: 50 μl of sample+50 μl of Detection Reagent+25 μl of Nano-Glo® Luciferase Assay substrate.
# (§3) Labeled cells (1,250-10,000 cells/well) were plated with experimental treatment conditions (e.g., drug, effector cells, etc.) in 50 μl of appropriate medium. Wells without cells were included as negative controls to determine background luminescence in the media. Separate wells were included with pre-labeled cells for determining maximum release of labeled proteins. Detection Reagents were assembled: about 1 ml of Detection Reagent buffer (2×) was combined with about 1.25 μl of Detection Component 1 and 1.25 μl of Detection Component 2. If maximum release determination was needed, the required amount of prepared Detection Reagent (50 μl/per sample) was removed, and digitonin at 0.12 mg/ml concentration added (for example, add 6 μl to 1 ml of Detection Reagent).
# (§4) About 50 μl of prepared Detection Reagent was added into all assay wells and negative (media) control wells. Detection Reagent with Digitonin was added into control wells for determining maximum release. The cells were placed into a tissue culture incubator, and the treatment continued up to 24 hours. Nano-Glo® Luciferase Assay Substrate was prepared by diluting (1:50) substrate into assay medium. The assay plate was then removed from the tissue culture incubator and equilibrated to room temperature for about 5 mins. About 25 μL of prepared substrate was added to the assay wells, mixed, and luminescence was read.
# (§5) No labeling control was included for toxicity evaluation. After labeling, the cells were resuspended in appropriate medium, counted, and plated into wells of a 96-well plate at two-fold serial dilution starting from 20,000 cells/well. The Detection Reagents with or without digitonin were added as described above, and the plates were placed into a tissue culture incubator. After incubation, Nano-Glo® Luciferase Assay substrate was added to the samples, and luminescence was read. After reading luminescence, an equal volume of CellTiter-Glo was added to the samples to measure changes in viability. […] The linear range of the assay is underlined. Dead/Live is the ratio between luminescence signal of dead and live cells calculated after assay background subtraction (media control).
# K562 cells [2] = assay: Release of labeled proteins from dead cells, NanoBiT bioluminescence (HaloTag-SmBiT/HaloTag-LgBiT), K562; settings: for Dead/Live at 5,000 cells/well: final labeling probe concentration 5 μM; for Dead, RLUs: dead (digitonin treated) cells; for Live, RLUs: live cells; for Dead/Live: ratio after background subtraction
# Protocol: as §1, §2, §3, §4, §5
# Raji cells [3] = assay: Cell viability after labeling, CellTiter-Glo, Raji
# Protocol: (§6) For assay optimization, labeling the cells at different probe concentrations and setting up cell titration curves can be advantageous. To evaluate effect of labeling on cell viability, different viability/toxicity assays can also be used. Here, an example of assay optimization is provided using Raji and K562 cells. […] However, labeling efficiency, toxicity, assay linearity, and assay window differed depending on the cell line and labeling conditions. […] Labeling K562 at 2 μM extended linear range of the assay up to 20,000 cells/well, however assay window decreased from 18-fold to 7-8-fold.
# as §5
# K562 cells [4] = assay: Cell viability after labeling, CellTiter-Glo, K562; settings: labeled at 2 and 5 μM
# Protocol: as §6, §5
# SKBR3 = assay: Release of labeled proteins from dead cells, NanoBiT bioluminescence, SKBR3; settings: final labeling probe concentration 10 μM
# Protocol: as §1
# (§7) In some embodiments, one or more components of the NanoBiT® system can be used for measuring cell death of pre-labeled cell population in mixed cell cultures. […]
# (§8) Labeled cells (1,250-10,000 cells/well) were plated with experimental treatment conditions (e.g., drug, effector cells, etc.) in 50 μl of appropriate medium. Wells without cells were included as negative controls to determine background luminescence in the media. […]
# (§9) About 50 μl of prepared Detection Reagent was added into all assay wells and negative (media) control wells. […] About 25 μL of prepared substrate was added to the assay wells, mixed, and luminescence was read.
# A431 = assay: Release of labeled proteins from dead cells, NanoBiT bioluminescence, A431; settings: final labeling probe concentration 10 μM
# Protocol: as §1, §7, §8, §9
# HCT116 = assay: Release of labeled proteins from dead cells, NanoBiT bioluminescence, HCT116; settings: final labeling probe concentration 10 μM
# Protocol: as §1, §7, §8, §9
compound,measurement,setting,value
"O=C(NCCOCCOCCCCCCCl)c1ccc(C(=O)ON2C(=O)CCC2=O)cc1 [Labeling Probe, 2,5-dioxopyrrolidin-1-yl 4-((2-(2-((6-chlorohexyl)oxy)ethoxy)ethyl)carbamoyl)benzoate]",uptake of probe by cells,various cell types,successfully taken up by every cell tested
same,"Dead/Live at 5,000 cells/well",Raji cells [1]; at 4 h,35.4
same,"Dead/Live at 5,000 cells/well",Raji cells [1]; at 24 h,21.7
same,assay window,Raji cells [1]; labeling concentration 1 μM,> 5 fold
same,increase in luminescence signal in live cells from media only control,Raji cells [1]; labeling with 5 μM,> 2 fold
same,"Dead, RLUs","Raji cells [1]; probe 1 μM, 1,250 cells/well","112,901 RLUs"
same,"Live, RLUs","Raji cells [1]; probe 1 μM, 1,250 cells/well","71,937 RLUs"
same,Dead/Live,"Raji cells [1]; probe 1 μM, 1,250 cells/well",6.0
same,"Dead, RLUs","Raji cells [1]; probe 1 μM, 2,500 cells/well","164,403 RLUs"
same,"Live, RLUs","Raji cells [1]; probe 1 μM, 2,500 cells/well","78,455 RLUs"
same,Dead/Live,"Raji cells [1]; probe 1 μM, 2,500 cells/well",6.8
same,"Dead, RLUs","Raji cells [1]; probe 1 μM, 5,000 cells/well","257,879 RLUs"
same,"Live, RLUs","Raji cells [1]; probe 1 μM, 5,000 cells/well","88,466 RLUs"
same,Dead/Live,"Raji cells [1]; probe 1 μM, 5,000 cells/well",7.9
same,"Dead, RLUs","Raji cells [1]; probe 1 μM, 10,000 cells/well","403,731 RLUs"
same,"Live, RLUs","Raji cells [1]; probe 1 μM, 10,000 cells/well","107,531 RLUs"
same,Dead/Live,"Raji cells [1]; probe 1 μM, 10,000 cells/well",7.8
same,"Dead, RLUs","Raji cells [1]; probe 1 μM, 20,000 cells/well","731,355 RLUs"
same,"Live, RLUs","Raji cells [1]; probe 1 μM, 20,000 cells/well","134,572 RLUs"
same,Dead/Live,"Raji cells [1]; probe 1 μM, 20,000 cells/well",9.4
same,"Live, RLUs","Raji cells [1]; probe 5 μM, 1,250 cells/well","210,695 RLUs"
same,Dead/Live,"Raji cells [1]; probe 5 μM, 1,250 cells/well",7.7
same,"Dead, RLUs","Raji cells [1]; probe 5 μM, 2,500 cells/well","2,179,562 RLUs"
same,"Live, RLUs","Raji cells [1]; probe 5 μM, 2,500 cells/well","317,452 RLUs"
same,Dead/Live,"Raji cells [1]; probe 5 μM, 2,500 cells/well",8.2
same,"Dead, RLUs","Raji cells [1]; probe 5 μM, 5,000 cells/well","3,826,655 RLUs"
same,"Live, RLUs","Raji cells [1]; probe 5 μM, 5,000 cells/well","508,581 RLUs"
same,Dead/Live,"Raji cells [1]; probe 5 μM, 5,000 cells/well",8.4
same,"Dead, RLUs","Raji cells [1]; probe 5 μM, 10,000 cells/well","4,916,472 RLUs"
same,"Live, RLUs","Raji cells [1]; probe 5 μM, 10,000 cells/well","672,232 RLUs"
same,Dead/Live,"Raji cells [1]; probe 5 μM, 10,000 cells/well",7.9
same,"Dead, RLUs","Raji cells [1]; probe 5 μM, 20,000 cells/well","3,314,700 RLUs"
same,"Live, RLUs","Raji cells [1]; probe 5 μM, 20,000 cells/well","645,489 RLUs"
same,Dead/Live,"Raji cells [1]; probe 5 μM, 20,000 cells/well",5.6
same,"Dead/Live at 5,000 cells/well",K562 cells [2]; at 4 h,18.3
same,"Dead/Live at 5,000 cells/well",K562 cells [2]; at 24 h,19.0
same,assay window,K562 cells [2]; labeling at 2 μM,7-8 fold
same,assay window,K562 cells [2]; labeling at 5 μM,18 fold
same,"Dead, RLUs","K562 cells [2]; probe 2 μM, 1,250 cells/well","69,663 RLUs"
same,"Live, RLUs","K562 cells [2]; probe 2 μM, 1,250 cells/well","37,113 RLUs"
same,Dead/Live,"K562 cells [2]; probe 2 μM, 1,250 cells/well",5.0
same,"Dead, RLUs","K562 cells [2]; probe 2 μM, 2,500 cells/well","88,448 RLUs"
same,"Live, RLUs","K562 cells [2]; probe 2 μM, 2,500 cells/well","40,600 RLUs"
same,Dead/Live,"K562 cells [2]; probe 2 μM, 2,500 cells/well",5.2
same,"Dead, RLUs","K562 cells [2]; probe 2 μM, 5,000 cells/well","114,346 RLUs"
same,"Live, RLUs","K562 cells [2]; probe 2 μM, 5,000 cells/well","42,059 RLUs"
same,Dead/Live,"K562 cells [2]; probe 2 μM, 5,000 cells/well",7.6
same,"Dead, RLUs","K562 cells [2]; probe 2 μM, 10,000 cells/well","154,018 RLUs"
same,"Live, RLUs","K562 cells [2]; probe 2 μM, 10,000 cells/well","47,861 RLUs"
same,Dead/Live,"K562 cells [2]; probe 2 μM, 10,000 cells/well",7.3
same,"Dead, RLUs","K562 cells [2]; probe 2 μM, 20,000 cells/well","192,283 RLUs"
same,"Live, RLUs","K562 cells [2]; probe 2 μM, 20,000 cells/well","51,528 RLUs"
same,Dead/Live,"K562 cells [2]; probe 2 μM, 20,000 cells/well",7.9
same,"Dead, RLUs","K562 cells [2]; probe 5 μM, 1,250 cells/well","236,022 RLUs"
same,"Live, RLUs","K562 cells [2]; probe 5 μM, 1,250 cells/well","43,298 RLUs"
same,Dead/Live,"K562 cells [2]; probe 5 μM, 1,250 cells/well",18.1
same,"Dead, RLUs","K562 cells [2]; probe 5 μM, 2,500 cells/well","373,598 RLUs"
same,"Live, RLUs","K562 cells [2]; probe 5 μM, 2,500 cells/well","50,284 RLUs"
same,Dead/Live,"K562 cells [2]; probe 5 μM, 2,500 cells/well",18.7
same,"Dead, RLUs","K562 cells [2]; probe 5 μM, 5,000 cells/well","591,060 RLUs"
same,"Live, RLUs","K562 cells [2]; probe 5 μM, 5,000 cells/well","60,873 RLUs"
same,Dead/Live,"K562 cells [2]; probe 5 μM, 5,000 cells/well",19.4
same,"Dead, RLUs","K562 cells [2]; probe 5 μM, 10,000 cells/well","620,751 RLUs"
same,"Live, RLUs","K562 cells [2]; probe 5 μM, 10,000 cells/well","76,596 RLUs"
same,Dead/Live,"K562 cells [2]; probe 5 μM, 10,000 cells/well",13.1
same,"Dead, RLUs","K562 cells [2]; probe 5 μM, 20,000 cells/well","477,185 RLUs"
same,"Live, RLUs","K562 cells [2]; probe 5 μM, 20,000 cells/well","78,093 RLUs"
same,Dead/Live,"K562 cells [2]; probe 5 μM, 20,000 cells/well",9.4
same,increase in light output in live cells as compared to media control,K562 cells [2]; within the linear range of the assay,less than 2 fold
same,effect on cell viability,Raji cells [3]; labeling concentration 1 μM,without significant effect on cell viability
same,decrease in cell viability as measured by CellTiter-Glo,Raji cells [3]; labeling with 5 μM,more than 40%
same,cell viability measured with CellTiter-Glo,K562 cells [4],no decrease in cell viability
same,"Dead/Live at 5,000 cells/well",SKBR3; at 4 h,10.1
same,"Dead/Live at 5,000 cells/well",SKBR3; at 24 h,10.9
same,"Dead/Live at 5,000 cells/well",A431; at 4 h,7.4
same,"Dead/Live at 5,000 cells/well",A431; at 24 h,6.2
same,"Dead/Live at 5,000 cells/well",HCT116; at 4 h,8.1
same,"Dead/Live at 5,000 cells/well",HCT116; at 24 h,6.7
